# From patent US10485815B2, “Substituted nucleosides, nucleotides and analogs thereof” (Alios BioPharma, Inc., priority 2012, dated 2019)
# Assays:
# [1] = system: RSV A2 (ATCC: VR-1540); assay: RSV RT-PCR based assay in HEp-2 cells; type: cell-based; conditions: human respiratory syncytial virus, 96 h; RT-PCR assay, HEp-2 cells, RSV A2 MOI 0.1, 4 days after infection; read-out: EC50
# [2] = system: Influenza strain A/WSN/33 (H1N1); assay: microbe, parasite or virus in culture; type: cell-based; conditions: A549, 20 h, read-out: % Inhibition
# [3] = system: human parainfluenza virus 3 (hPIV3, ATCC: VR-93); assay: Parainfluenza virus-3 (PIV-3) RT-PCR assay in A549 cells; type: cell-based; conditions: Human respirovirus 3, 168 h, hPIV3 MOI 0.1, 7 days after infection
# [4] = system: hPIV3-eGFP; assay: microbe, parasite or virus in culture; type: cell-based, human parainfluenza virus 3; conditions: Human respirovirus 3, A549, 72 h
# [5] = system: human PIV type 3; assay: Parainfluenza virus-3 (PIV-3) plaque assay in MA-104 cells; type: cell-based; conditions: MA104, 72 hours infection
# Procedure: MA-104 cells were grown in 24-well plates to a confluency of 90% in the presence of minimal essential medium (MEM) supplemented with 10% fetal bovine serum and antibiotics (C-EMEM). The cells were then washed twice with non-complete minimal essential medium (NC-EMEM). Test articles were dissolved in DMSO to a stock concentration of 10 mM. An aliquot of 0.5 mL of the test article at various concentrations was then inoculated in triplicate wells and incubated for 60 minutes at 37° C. with 5% CO2 for the diffusion of test article into MA-104 cells. […] An aliquot of 0.1 mL was then inoculated into all the wells except for the negative and test article toxicity control wells. Upon infection, the plates were incubated for 72 hours at 37° C. at 5% CO2. After incubation, the plates were examined under microscopy to record cytotoxicity. The supernatants collected for viral quantification using a standard plaque assay using MA-104 cells as the indicator cells. To perform the plaques assay, MA-104 cells were grown to confluence in 24-well plates. The cells were washed with serum-free medium prior to inoculation of duplicate wells with serial 10-fold dilutions of supernatant sample. After 1 hour incubation at 37° C., the samples were aspirated and 1.0 mL of methyl cellulose overlay media was added to each well. […]
# [6] = system: human metapneumovirus; assay: Human metapneumovirus (hMPV) TCID50 assay in LLC-MK2 cells; type: cell-based; conditions: 168 h, 7 days infection
# Procedure: LLC-MK2 cells were grown in 24-well plates to a confluency of 90% in the presence of minimal essential medium (MEM) supplemented with 10% fetal bovine serum and antibiotics (C-EMEM). The cells were then washed twice with non-complete minimal essential medium (NC-EMEM). Test articles were dissolved in DMSO to a stock concentration of 10 mM. An aliquot of 0.5 mL of the test article at various concentrations was then inoculated in triplicate wells and incubated for 60 minutes at 37° C. with 5% CO2 for the diffusion of test article into LLC-MK2 cells. […] An aliquot of 0.1 mL was then inoculated into all the wells except for the negative and test article toxicity control wells. Upon infection, the plates were incubated for 7 days at 37° C. at 5% CO2. After incubation, the plates were examined under microscopy to record cytotoxicity. The supernatants collected for viral quantification using a standard TCID50 assay using LLC-MK2 cells as the indicator cells. The data was analyzed with Prism software with EC50 defined as drug concentration that reduced the viral load 50% from the viral control (VC).
SMILES,EC50 [1] [µM],EC50 [2] [µM],EC50 [3] [µM],EC50 [4] [µM],EC50 [5] [µM],EC50 [6] [µM]
CC[C@]1(CO)O[C@@H](n2ccc(N)nc2=O)[C@H](F)[C@@H]1O [Compound 3a],< 1,100 to 250,< 20,< 20,< 20,< 20
Nc1ccn([C@@H]2OC(CO)(CO)[C@@H](O)[C@H]2F)c(=O)n1 [Compound 6a],–,100 to 250,> 100,> 100,–,–
Nc1ccn([C@@H]2O[C@@](CO)(CCl)[C@@H](O)[C@H]2F)c(=O)n1 [Compound 7a],< 1,100 to 250,< 20,< 20,< 20,< 20
C[C@]1(CO)O[C@@H](n2ccc(N)nc2=O)[C@H](F)[C@@H]1O [Compound 9a],10 to 100,100 to 250,> 100,> 100,–,–
CO[C@]1(CO)O[C@@H](n2ccc(N)nc2=O)[C@H](F)[C@@H]1O [Compound 22a],10 to 100,100 to 250,> 100,> 100,–,–
Nc1ccn([C@@H]2O[C@@](CO)(CF)[C@@H](O)[C@H]2F)c(=O)n1 [Compound 23a],< 1,100 to 250,> 100,> 100,–,–
CSC[C@]1(CO)O[C@@H](n2ccc(N)nc2=O)[C@H](F)[C@@H]1O [Compound 69a],< 1,–,< 20,20 to 100,–,–
Nc1ccn([C@@H]2O[C@@](CO)(CBr)[C@@H](O)[C@H]2F)c(=O)n1 [Compound 71a],< 1,–,> 100,> 100,–,–
[N-]=[N+]=N[C@]1(CO)O[C@@H](n2ccc(N)nc2=O)[C@@H](O)[C@@H]1O [Compound 113a],–,–,> 100,> 100,–,–
